From patent publication US9968620B2, “Methods of treating lymphoma using thienotriazolodiazepine compounds” (ONCOETHIX GmbH, priority 2014, dated 2018)

Assays:
[1] = system: SU-DHL-6, SU-DHL-2 cell lines; experiment: Gene expression profiling (GEP), Illumina HumanHT-12; format: cell-based, human; details: 500 nM, 1, 2, 4, 8 or 12 hours
Experimental: (§1) Cell lines: 22 diffuse large B-cell lymphoma (DLBCL), 4 mantle cell lymphomas, 3 multiple myelomas, 3 splenic marginal zone lymphoma and 1 prolymphocytic leukemia. Antiproliferative activity of compound (1-1) (OncoEthix SA, Switzerland) was assessed by MTT and its cytotoxic activity by Annexin V staining and gene expression profiling (GEP) with Illumina HumanHT-12 Expression BeadChips. Data mining was done with LIMMA, GSEA, Metacore. Synergy was assessed in cells (2-5 cell lines) exposed for 72 h to increasing doses of compound (1-1) alone or in combination with increasing doses of other agents. MTT assays were performed and Chou-Talalay combination index (CI) calculated.
We performed GEP on 2 cell lines (SU-DHL-6, SU-DHL-2), treated with DMSO or compound (1-1) (500 nM) for 1, 2, 4, 8 or 12 hours.

[2] = system: IL10 and IL4 production; experiment: IL10 and IL4 production; format: cell-based; details: after 24 hours treatment
[3] = system: DLBCL cell lines; experiment: GEP variations of validated miRNA target genes; format: cell-based, human
Experimental: (§2) Total RNA was extracted from 2 DLBCL cell lines, the germinal center B-cell (GCB) type DOHH2 and from the activated B-cell-like (ABC)-type SU-DHL-2, following treatment with compound (1-1) (500 nM) or DMSO for 4 h or 8 h. RNA samples were labeled with cyanine-3 dye using the Agilent microRNA Complete Labeling System & Hyb Kit and hybridized to the Agilent Human microRNA microarray v.3. Raw expression values were obtained with Agilent Feature Extraction Software, log-transformed and normalized by the quantile method. Data were filtered to exclude relatively invariant features and those below the detection threshold. Limma (Linear Models for Microarray data analysis) was employed using R/Bioconductor and the filtered dataset. Baseline miRNA profiling was obtained in 22 DLBCL cell lines with the Nanostring nCounter Human v2 miRNA Expression Assay kit. Baseline gene expression profiling (GEP) was obtained in the 22 cell lines with the Illumina HumanHT-12 v4 Expression BeadChip. Selected miRNA changes were validated by real-time PCR. The miRWalk database (Dweep et al, 2011) was used to retrieve the validated miRNA targets. Gene Set Enrichment Analysis (GSEA) software was used to assess enrichment of miRNA targets in the GEP datasets.
Total RNA was extracted from 2 diffuse large B-Cell lymphoma (DLBCL) cell lines, the germinal center B-cell (GCB) type DOHH2 and activated B-cell-like (ABC)-type SU-DHL-2, following treatment with 500 nM compound (1-1) or DMSO for 4 h or 8 h. RNA samples were labeled with cyanine-3 dye using the Agilent microRNA Complete Labeling System & Hyb Kit and hybridized to the Agilent Human microRNA microarray v.3. Raw expression values were obtained with Agilent Feature Extraction Software, log-transformed and normalized by the quantile method. Data were filtered to exclude relatively invariant features and those below the detection threshold. Limma was employed using R/Bioconductor and the filtered dataset. Baseline microRNA (abbreviated miRNA) profiling was obtained from 30 B-cell lymphoma cell lines, including 22 DLBCL with the Nanostring nCounter Human v2 miRNA Expression Assay kit. Baseline gene expression profiling (GEP) was obtained with the Illumina HumanHT-12 v4 Expression BeadChip. Selected miRNA changes were validated by real-time PCR. Validated miRNA targets were retrieved using the miRWalk database (Dweep et al, 2011). […] Changes in these miRNAs matched GEP variations of validated target genes (e.g., miR-92a-1-5p: CDKN1A, log 2 FC, 0.81, CDKN2A, log 2 FC, 0.81; miR-96-5p: MYC, log 2 FC, −0.57, MYD88, log 2 FC, −0.35).

[4] = system: ABC cell lines; experiment: Immunoblotting and immunohistochemistry; format: cell-based
[5] = Oral exposure in the rat (pharmacokinetics); format: in vivo, Sprague Dawley rats; details: rats, 1 mg/kg intravenous
[6] = system: NFKB target genes (IRF4, TNF AIP3 and BIRC3); experiment: PCR of NFKB target genes; format: cell-based
[7] = Antiproliferative activity by MTT; format: cell-based; details: B-cell
Experimental: as §1, with “[…].” for “Antiproliferative activity of compound (1-1) (OncoEthix SA, Switzerland) was assessed by MTT and its cytotoxic activity by Annexin V staining and gene expression profiling (GEP) with Illumina HumanHT-12 Expression BeadChips.”

[8] = system: 22 diffuse large B-cell lymphoma (DLBCL), 4 mantle cell lymphomas, 3 multiple myelomas, 3 splenic marginal zone lymphoma and 1 prolymphocytic leukemia cell …; experiment: Antiproliferative activity by MTT; format: cell-based; details: 500 nM, 72 h; 88%
Experimental: as §1, with “[…].” for “Antiproliferative activity of compound (1-1) (OncoEthix SA, Switzerland) was assessed by MTT and its cytotoxic activity by Annexin V staining and gene expression profiling (GEP) with Illumina HumanHT-12 Expression BeadChips.”

[9] = system: lymphoma cell lines; experiment: Cytotoxic activity (apoptosis) by Annexin V staining; format: cell-based; details: 500 nM, 72 h; 14%
[10] = system: DOHH2 and SU-DHL-2 DLBCL cell lines; experiment: miRNA profiling, Agilent Human microRNA microarray; format: cell-based; details: 500 nM vs DMSO, 4 h or 8 h
Experimental: as §2
Total RNA was extracted from 2 diffuse large B-Cell lymphoma (DLBCL) cell lines, the germinal center B-cell (GCB) type DOHH2 and activated B-cell-like (ABC)-type SU-DHL-2, following treatment with 500 nM compound (1-1) or DMSO for 4 h or 8 h. RNA samples were labeled with cyanine-3 dye using the Agilent microRNA Complete Labeling System & Hyb Kit and hybridized to the Agilent Human microRNA microarray v.3. Raw expression values were obtained with Agilent Feature Extraction Software, log-transformed and normalized by the quantile method. Data were filtered to exclude relatively invariant features and those below the detection threshold. Limma was employed using R/Bioconductor and the filtered dataset. […]

Cc1sc2c(c1C)C(c1ccc(Cl)cc1)=N[C@@H](CC(=O)Nc1ccc(O)cc1)c1nnc(C)n1-2 [Compound (1-1), 2-[(6S)-4-(4-chlorophenyl)-2,3,9-trimethyl-6H-thienol[3,2-f]-[1,2,4]triazolo[4,3-a][1,4]diazepin-6-yl]-N-(4-hydroxyphenyl)acetamide dihydrate]
expression of MYC (GEP) [1]: most frequently downregulated gene
expression of MYD88, IRAK1, TLR6, IL6, STAT3, and TNFRSF17 (NFKB, TLR and JAK/STAT pathways) [1]: downregulated
expression of histone genes (GEP) [1]: upregulated
IL10 and IL4 production [2]: reduced
CDKN1A expression (miR-92a-1-5p target), log 2 FC [3]: 0.81 log 2 FC
CDKN2A expression (miR-92a-1-5p target), log 2 FC [3]: 0.81 log 2 FC
MYC expression (miR-96-5p target), log 2 FC [3]: −0.57 log 2 FC
MYD88 expression (miR-96-5p target), log 2 FC [3]: −0.35 log 2 FC
transcriptionally active pSTAT3 ([4]; 2 ABC cell lines): reduction
nuclear localization of p50 (NFKB 1) ([4]; ABC cell lines): reduction
CI/F [5]: 13.4 mL/min/kg
expression of NFKB target genes (IRF4, TNF AIP3 and BIRC3) [6]: downregulated
IC50 ([7]; cell lines with lower sensitivity (8 of 22 DLBCL cell lines)): > 500 nM
IC50 ([7]; sensitive cell lines (14 of 22 DLBCL cell lines)): < 500 nM
cell lines showing cytostatic activity [8]: 29/33
cell lines showing apoptosis [9]: 3/22
miR-21-3p expression, log 2 FC [10]: −0.37 log 2 FC
miR-92a-1-5p expression, log 2 FC [10]: −2.01 log 2 FC
miR-96-5p expression, log 2 FC [10]: 0.39 log 2 FC
